Read-outs that look alike come from different tables or passages of the source.
What was measured:
HUVEC cells = assay: Assay of intracellular reactive oxygen species (ROS), DCFH-DA, high glucose; assay type: cell-based, human; details: luteolin 20, 10, 5 µM or formononetin 40, 20, 10 µM for 2 h, then high glucose 24 h
Description: The generation of ROS was detected using dichloro-dihydro-fluorescein diacetate (DCFH-DA, reactive oxygen species assay kit, Solarbio, Beijing) as per manufacturer instructions. In this study, we seeded HUVEC cells in a 96-well plate at 7 × 10^3 per well. […] DCF fluorescence was assessed at F488/525 nm by using a bioassay multi-detection fluorescent plate reader (Tecan Spark, Switzerland).

[1] = Pharmacokinetic study in SD rats after oral administration of TWMM (UPLC-QQQ-MS of plasma); assay type: in vivo, Sprague-Dawley (SD) rats; details: oral TWMM 9.6 g/kg; for AUC(0-t): n = 6, read-out: AUC (0–36); for MRT last: n = 6, read-out: MRT (0–36); for MRT inf: n = 6, read-out: MRT (0–∞); for AUC(0-inf): read-out: areas under the concentration-time curve (AUC0–∞)
Description: Chromatographic separation was performed using an ACQUITY UPLC H-Class system equipped with a 1.8 μm HSS T3 analytical column (100 mm × 2.1 i.d., Waters Corporation, Milford, USA). […] ESI source was set to negative ionisation mode while the analysis was performed using multiple reaction monitorin. Ion spray voltage (3000 V), capillary temperature (450 °C), and the source parameters of the nine compounds are shown in Table 2.
The data obtained from the UPLC/Q-Orbitrap MS was imported into Xcalibur 4.0 software for analysis. Furthermore, the constituents acquired using GCMS-QP 2010 were profiled by comparison using the National Institute of Standards and Technology (NIST) database. The pharmacokinetic data were processed through MassLynx 4.1, and DAS 2.0 software was used to calculate the pharmacokinetic parameters according to the compartment model.
Six male SD rats (average weight: 220 ± 10 g) were acquired from Beijing Vital-River Laboratory Animal Technology Co., Ltd. All rats were acclimatized to an environmentally controlled laboratory for a week. Following this period, the rats were exposed to fasting conditions for 12 h but were allowed free access to water before the experiment. The rats were orally administered TWMM at a dose of 9.6 g/kg. Blood samples (300 µL) were collected into heparinized centrifuge tubes from the fossa orbitalis at pre-dose and 0.03, 0.08, 0.17, 0.25, 0.5, 1, 2, 4, 8, 12, 24, and 36 h intervals. The samples were immediately centrifuged at 6000 g for 10 min at 4 °C and the supernatants were transferred to clean centrifuge tubes.
Each 100 µL plasma sample was mixed with 20 µL of methanol, 20 µL of IS (5 µg/mL), and 600 µL acetonitrile. The mixtures were centrifuged at 15,000 g for 10 min at 4 °C after being vortexed for 3 min. The obtained supernatants were transferred to clean 1.5 mL centrifuge tubes, followed by evaporation under a milt nitrogen stream. Next, the obtained residues were individually redissolved in 100 µL of methanol and centrifuged at 15,000 g for 10 min at 4 °C after vortexed for 3 min. Lastly, 10 µL of individual supernatant was injected for analysis.

[2] = Stability of QC samples of 8 compounds in rat plasma (25 °C 4 h, autosampler 12 h, three freeze-thaw cycles, −80 °C 7 d); assay type: in vitro ADME
Description: The calibration curves were assessed at eight concentration levels using the correlation coefficient (r). The lower limit of quantification (LLOQ) could fulfil the analytical requirements and achieved reliable accuracy and precision with a signal-to-noise ratio (S/N) ≥ 10. To determine intra- and inter-day precision and accuracy, six replicate quality control (QC) samples at three concentrations were prepared. Inter- and intra-day precision was evaluated by determining relative standard deviation (RSD) values, while accuracy was expressed in terms of the relative error (RE). The extraction recoveries were determined using three concentration levels and calculated by comparing the peak area of extracted samples with post-extracted spiked samples. Subsequently, matrix effects were assessed using the peak area of post-extracted spiked samples contrasted with QC samples at the three concentration levels. The stability test of QC samples at the three concentration levels was as follows: storage at 25 °C for 4 h, storage in an autosampler for 12 h, freeze-thaw cycle for three times, and storage at −80 °C for 7 d.
The stability tests were carried out under three freeze-thaw cycles, at 25 °C for 4 h, in an autosampler for 12 h, and at −80 °C for 7 d.

[3] = design: method as in Guan et al. 2014; Cheruvu et al. 2018; Jia et al. 2020; details: in different herbal extracts and prescriptions; ref Guan et al. 2014; Cheruvu et al. 2018; Jia et al. 2020; cited from earlier work
[4] = male, Sprague-Dawley, rat, n = 6
[5] = male, Sprague-Dawley, rat, n = 6, read-out: Cmax

Structure (SMILES)	ROS generation induced by HG (HUVEC cells)	half-life [1, 4] [h]	AUC(0-t) ([1]; male, Sprague-Dawley, rat) [ng·h/mL]	Cmax [1, 5] [ng/mL]	MRT last ([1]; male, Sprague-Dawley, rat) [h]	MRT inf ([1]; male, Sprague-Dawley, rat) [h]	AUC(0-inf) ([1]; male, Sprague-Dawley, rat) [ng·h/mL]	Tmax ([1]; n = 6) [h]	Stability in rat plasma, Three freeze/thaw cycles, Measured ([2]; rat, plasma, 1 ng/mL) [ng/mL]	Stability in rat plasma, Three freeze/thaw cycles, Measured ([2]; rat, plasma, 10 ng/mL) [ng/mL]	Stability in rat plasma, Three freeze/thaw cycles, Measured ([2]; rat, plasma, 200 ng/mL) [ng/mL]	Stability in rat plasma, Room temperature (4 h, 25 °C), Measured ([2]; rat, plasma, 1 ng/mL) [ng/mL]	Stability in rat plasma, Room temperature (4 h, 25 °C), Measured ([2]; rat, plasma, 10 ng/mL) [ng/mL]	Stability in rat plasma, Room temperature (4 h, 25 °C), Measured ([2]; rat, plasma, 200 ng/mL) [ng/mL]	Stability in rat plasma, Autosampler (12 h, 4 °C), Measured ([2]; rat, plasma, 12 h, 1 ng/mL) [ng/mL]	Stability in rat plasma, Autosampler (12 h, 4 °C), Measured ([2]; rat, plasma, 12 h, 10 ng/mL) [ng/mL]	Stability in rat plasma, Autosampler (12 h, 4 °C), Measured ([2]; rat, plasma, 12 h, 200 ng/mL) [ng/mL]	Stability in rat plasma, Long term (7 day, –80 °C), Measured ([2]; rat, plasma, 168 h, 1 ng/mL) [ng/mL]	Stability in rat plasma, Long term (7 day, –80 °C), Measured ([2]; rat, plasma, 168 h, 10 ng/mL) [ng/mL]	Stability in rat plasma, Long term (7 day, –80 °C), Measured ([2]; rat, plasma, 168 h, 200 ng/mL) [ng/mL]	other results
COc1ccc(-c2coc3cc(O)ccc3c2=O)cc1 [Formononetin]	could alleviate the symptom of DR	11.7 ± 2.09	40.8 ± 8.51	6.17 ± 1.65	10.7 ± 1.17	15.7 ± 1.9	46 ± 7.89	0.46 ± 0.29	1.0 ± 0.1	10.1 ± 1.0	206.3 ± 21.0	1.1 ± 0.1	11.8 ± 0.2	220.6 ± 3.5	1.2 ± 0.1	10.1 ± 0.2	222.6 ± 3.6	1.1 ± 0.1	10.2 ± 0.2	216.0 ± 4.3	Tmax ([1]; n = 6, listed as formononetin): ≤ 1 h
O=c1cc(-c2ccc(O)c(O)c2)oc2cc(O)cc(O)c12 [Luteolin]	could alleviate the symptom of DR	11.1 ± 10.2	38.5 ± 7.61	3.27 ± 0.78	11.4 ± 1.23	18.2 ± 9.14	44 ± 4.19	–	1.1 ± 0.1	11.4 ± 0.8	218.0 ± 9.9	1.2 ± 0.1	11.3 ± 0.3	217.9 ± 11.7	1.1 ± 0.1	10.0 ± 0.2	205.6 ± 0.9	1.0 ± 0.1	10.4 ± 0.6	221.9 ± 6.8	Tmax ([1]; male, Sprague-Dawley, rat, po, 9.6 g/kg, n = 6, read-out: Tmax): 1.71 ± 1.79 h; Tmax [3]: 0.50 to 2.83 h; t1/2 [3]: 3.63 to 12.10 h
CC=C1[C@H](O[C@@H]2O[C@H](CO)[C@@H](O)[C@H](O)[C@H]2O)OC=C(C(=O)OC)[C@H]1CC(=O)OC[C@H]1O[C@@H](OCCc2ccc(O)cc2)[C@H](O)[C@@H](O)[C@@H]1O (stereo in doubt) [Specnuezhenide]	–	–	–	–	–	–	–	0.46 ± 0.29	–	–	–	–	–	–	–	–	–	–	–	–	areas under the concentration-time curve (AUC0–∞) [1]: 57.2 ± 30.2 ng·h/mL; AUC (0–36) ([1]; n = 6): 48.62 ± 19.41 ng·h/mL; AUC (0–∞) ([1]; n = 6): 57.19 ± 30.25 ng·h/mL; Cmax ([1]; n = 6): 13.33 ± 4.61 ng/mL; MRT (0–36) ([1]; n = 6): 11.02 ± 5.63 h; MRT (0–∞) ([1]; n = 6): 19.29 ± 16.60 h; t1/2 ([1]; n = 6): 20.27 ± 25.00 h; Tmax ([1]; n = 6, listed as specnuezhenide): ≤ 1 h; Stability in rat plasma, Autosampler (12 h, 4 °C), Measured ([2]; QC concentration 1 ng/mL, autosampler 12 h, 4 °C, rat plasma, n = 3): 1.1 ± 0.1 ng/mL; Stability in rat plasma, Long term (7 day, –80 °C), Measured ([2]; QC concentration 1 ng/mL, long term 7 day, –80 °C, rat plasma, n = 3): 1.0 ± 0.1 ng/mL; Stability in rat plasma, Room temperature (4 h, 25 °C), Measured ([2]; QC concentration 1 ng/mL, room temperature 25 °C, rat plasma, n = 3): 1.0 ± 0.1 ng/mL; Stability in rat plasma, Three freeze/thaw cycles, Measured ([2]; QC concentration 1 ng/mL, three freeze/thaw cycles, rat plasma, n = 3): 1.0 ± 0.0 ng/mL; Stability in rat plasma, Autosampler (12 h, 4 °C), Measured ([2]; QC concentration 10 ng/mL, autosampler 12 h, 4 °C, rat plasma, n = 3): 9.8 ± 0.6 ng/mL; Stability in rat plasma, Long term (7 day, –80 °C), Measured ([2]; QC concentration 10 ng/mL, long term 7 day, –80 °C, rat plasma, n = 3): 10.3 ± 0.6 ng/mL; Stability in rat plasma, Room temperature (4 h, 25 °C), Measured ([2]; QC concentration 10 ng/mL, room temperature 25 °C, rat plasma, n = 3): 10.7 ± 0.2 ng/mL; Stability in rat plasma, Three freeze/thaw cycles, Measured ([2]; QC concentration 10 ng/mL, three freeze/thaw cycles, rat plasma, n = 3): 11.5 ± 0.6 ng/mL; Stability in rat plasma, Autosampler (12 h, 4 °C), Measured ([2]; QC concentration 200 ng/mL, autosampler 12 h, 4 °C, rat plasma, n = 3): 198.2 ± 2.6 ng/mL; Stability in rat plasma, Long term (7 day, –80 °C), Measured ([2]; QC concentration 200 ng/mL, long term 7 day, –80 °C, rat plasma, n = 3): 225.6 ± 9.0 ng/mL; Stability in rat plasma, Room temperature (4 h, 25 °C), Measured ([2]; QC concentration 200 ng/mL, room temperature 25 °C, rat plasma, n = 3): 212.7 ± 8.4 ng/mL; Stability in rat plasma, Three freeze/thaw cycles, Measured ([2]; QC concentration 200 ng/mL, three freeze/thaw cycles, rat plasma, n = 3): 219.0 ± 8.4 ng/mL

Reference: PMC8491704, “Pharmacokinetic study of Tangwang Mingmu granule for the management of diabetic retinopathy based on network pharmacology” (Pharmaceutical Biology, 2021)
